Observed efficacy data for 8 molecules are collected here from US20180235221A1 (priority 2015, published 2018).

Experiment [1] deals with Qol resistant Alternaria solani isolate (141). Briefly: Microtest, activity against early blight pathogen Alternaria solani. The class given is cell-based. As to conditions: single active compound, MTP, 405 nm, 7 days after inoculation.
For experiment [2], the system named is Qol resistant Septoria tritici isolate (3573). As to the kind of experiment: Microtest, activity against causal agent of leaf blotch Septoria tritici. As to conditions: single active compound, MTP, 405 nm, 7 days after inoculation. Type of experiment: cell-based.

For the molecule `CC(=NOCc1c(C)cccc1-n1nnn(C)c1=O)c1cccc(C(F)(F)F)c1` [II-11, -methyl-4-[3-methyl-2-[[1-[3-(trifluoromethyl)-phenyl]-ethylideneamino]oxymethyl]phenyl]tetrazol-5-one], the Observed efficacy stood at 0% in experiment [1] (0.016 ppm), 0% in experiment [1] (0.063 ppm) and 15% in experiment [1] (0.25 ppm).
Turning to `Cn1nnn(-c2cccc(Cl)c2COc2ccn(-c3ccc(Cl)cc3)n2)c1=O` [II-1, 1-[3-chloro-2[[1-(4-chlorophenyl)-1H-pyrazol-3-yl]oxymethyl]phenyl]-4-methyl-tetrazol-5-one], the Observed efficacy in experiment [2] (0.25 ppm) is recorded as 23%; in experiment [1] (0.016 ppm) it was 0%; in experiment [1] (0.063 ppm), 0%.
As for `CNC(=O)C(=N/OC)/C(C)=C\COc1ccn(-c2ccc(Cl)cc2Cl)n1` [Compound I-3, (Z,2E)-5-[1-(2,4-dichlorophenyl)pyrazol-3-yl]oxy-2-methoxyimino-N,3-dimethyl-pent-3-en-amide], the Observed efficacy in experiment [2] (0.016 ppm) is listed as 10%; in experiment [2] (0.063 ppm), 32%; in experiment [1] (0.063 ppm) it was 0%; in experiment [1] (0.25 ppm), 0%.
Turning to `Cn1nnn(-c2cccc(F)c2COc2ccn(-c3ccc(Cl)cc3)n2)c1=O` [II-4, 1-[2-[[1-(4-chlorophenyl)pyrazol-3-yl]oxymethyl]-3-fluoro-phenyl]-4-methyl-tetrazol-5-one], the Observed efficacy in experiment [1] (0.016 ppm) and in experiment [1] (0.063 ppm) was 0% each time.
`Cn1nnn(-c2cccc(F)c2COc2ccn(-c3ccc(Cl)cc3Cl)n2)c1=O` [II-5, 1-[2-[[1-(2,4-dichlorophenyl)pyrazol-3-yl]oxymethyl]-3-fluoro-phenyl]-4-methyl-tetrazol-5-one]: the Observed efficacy in experiment [1] (0.016 ppm) is recorded as 6%.
On to `CNC(=O)C(=N/OC)/C(C)=C\COc1ccn(-c2ccc(Cl)cc2)n1` [Compound I-1, (Z,2E)-5-[1-(4-chlorophenyl)pyrazol-3-yl]oxy-2-methoxyimino-N,3-dimethyl-pent-3-enamide], for which the Observed efficacy in experiment [2] (0.016 ppm) was 10%; in experiment [2] (0.063 ppm), 21%; in experiment [2] (0.25 ppm) it was 49%; in experiment [1] (0.25 ppm) it was 0%.
As for `Cn1nnn(-c2cccc(Br)c2COc2ccn(-c3ccc(Cl)cc3)n2)c1=O` [II-2, 1-[3-bromo-2-[[1-(4-chlorophenyl)pyrazol-3-yl]oxymethyl]phenyl]-4-methyl-tetrazol-5-one], the Observed efficacy in experiment [1] (0.016 ppm), in experiment [1] (0.063 ppm) and in experiment [1] (0.25 ppm) was 0% each time.
Regarding `Cc1cccc(-n2nnn(C)c2=O)c1COc1ccn(-c2ccc(Cl)cc2)n1` [II-3, 1-[2-[[1-(4-chlorophenyl)pyrazol-3-yl]oxymethyl]-3-methyl-phenyl]-4-methyl-tetrazol-5-one], the results for the Observed efficacy in experiment [2] (0.25 ppm) and in experiment [1] (0.016 ppm) were 17% and 0%, respectively.
